Results as given in PubChem BioAssay AID248 (DTP/NCI, 2004).
“And” between values parts separate entries of the source, which are not always exact repeats. Equal entries are not always repeated. Inconclusive results and toxic doses are left out. No stated cut-off is given here; in the data, active means T/C of 150% or more; inactive means T/C below 125%.

Test system: L1210 leukemia ip in BDF1 mice, survival T/C
Test: NCI In Vivo Anticancer Drug Screen. Data for tumor model L1210 Leukemia (intraperitoneal) in B6D2F1 (BDF1) mice
Conditions: endpoint: mean survival time, higher = longer survival
How it was run: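 Transplantable tumor model; survival measured in treated vs vehicle control mice. Value = treated/control.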

[1] = dose: 5.0 mg/kg/injection, schedule: Q01DX001 (ip), vehicle: saline
[2] = dose: 100.0 mg/kg/injection, schedule: Q01DX001 (ip), vehicle: saline with Tween-80
[3] = dose: 200.0 mg/kg/injection, schedule: Q01DX001 (ip), vehicle: saline with Tween-80
[4] = dose: 400.0 mg/kg/injection, schedule: Q01DX001 (ip), vehicle: saline with Tween-80
[5] = dose: 50.0 mg/kg/injection, schedule: Q01DX001 (ip), vehicle: saline
[6] = dose: 100.0 mg/kg/injection, schedule: Q01DX001 (ip), vehicle: saline
[7] = dose: 100.0 mg/kg/injection, schedule: Q01DX009 (ip), vehicle: Klucel (hydroxypropylcellulose) (HPC)
[8] = dose: 100.0 mg/kg/injection, schedule: Q04DX003 (ip), vehicle: Klucel (hydroxypropylcellulose) (HPC)
[9] = dose: 200.0 mg/kg/injection, schedule: Q01DX009 (ip), vehicle: Klucel (hydroxypropylcellulose) (HPC)
[10] = dose: 200.0 mg/kg/injection, schedule: Q04DX003 (ip), vehicle: Klucel (hydroxypropylcellulose) (HPC)
[11] = dose: 400.0 mg/kg/injection, schedule: Q01DX009 (ip), vehicle: Klucel (hydroxypropylcellulose) (HPC)
[12] = dose: 400.0 mg/kg/injection, schedule: Q04DX003 (ip), vehicle: Klucel (hydroxypropylcellulose) (HPC)
[13] = dose: 100.0 mg/kg/injection, schedule: Q04DX003 (ip), vehicle: saline
[14] = dose: 200.0 mg/kg/injection, schedule: Q04DX003 (ip), vehicle: saline
[15] = dose: 100.0 mg/kg/injection, schedule: Q01DX009 (ip), vehicle: saline with Tween-80
[16] = dose: 100.0 mg/kg/injection, schedule: Q04DX003 (ip), vehicle: saline with Tween-80
[17] = dose: 200.0 mg/kg/injection, schedule: Q01DX009 (ip), vehicle: saline with Tween-80
[18] = dose: 200.0 mg/kg/injection, schedule: Q04DX003 (ip), vehicle: saline with Tween-80
[19] = dose: 400.0 mg/kg/injection, schedule: Q04DX003 (ip), vehicle: saline with Tween-80
[20] = dose: 100.0 mg/kg/injection, schedule: Q01DX009 (ip), vehicle: saline
[21] = dose: 200.0 mg/kg/injection, schedule: Q01DX009 (ip), vehicle: saline
[22] = dose: 400.0 mg/kg/injection, schedule: Q01DX009 (ip), vehicle: saline
[23] = dose: 200.0 mg/kg/injection, schedule: Q01DX001 (ip), vehicle: saline
[24] = dose: 400.0 mg/kg/injection, schedule: Q01DX001 (ip), vehicle: saline
[25] = dose: 50.0 mg/kg/injection, schedule: Q01DX009 (ip), vehicle: saline with Tween-80

Measured: T/C

CC(CCl)N(CCCl)Cc1cccc(Nc2ncnc3nc[nH]c23)c1 (stereo unspecified)
inactive: dose: 1.1 mg/kg/injection, schedule: Q01DX015 (ip), vehicle: saline 122 % of control | dose: 1.8 mg/kg/injection, schedule: Q01DX015 (ip), vehicle: saline 112 % of control | dose: 3.0 mg/kg/injection, schedule: Q01DX015 (ip), vehicle: saline 109 % of control | dose: 4.4 mg/kg/injection, schedule: Q01DX001 (ip), vehicle: saline 120 % of control | [1] 121 % of control | dose: 5.0 mg/kg/injection, schedule: Q01DX015 (ip), vehicle: saline 102 % of control | dose: 6.6 mg/kg/injection, schedule: Q01DX001 (ip), vehicle: saline 120 % of control | dose: 20.0 mg/kg/injection, schedule: Q01DX001 (ip), vehicle: saline 117 % of control

COC(=O)CCC(C)C1CCC2C3CCC4CC(OC(C)=O)CCC4(C)C3CCC12C (stereo unspecified)
inactive: [2] 95 % of control | [3] 95 % of control | [4] 89 % of control

CC1(C)N=C(N)N=C(N)N1c1cccc(CCCCc2c(Cl)cccc2Cl)c1
inactive: dose: 25.0 mg/kg/injection, schedule: Q01DX001 (ip), vehicle: saline 105 % of control | [5] 86 % of control | [6] 95 % of control

O=C1C=CC(=O)c2[nH]c(=O)ccc21
inactive: [1] 104 % of control | dose: 10.0 mg/kg/injection, schedule: Q01DX001 (ip), vehicle: saline 107 % of control

O=C(CBr)c1cccnc1
inactive: dose: 6.25 mg/kg/injection, schedule: Q01DX009 (ip), vehicle: saline 98 % of control | dose: 12.5 mg/kg/injection, schedule: Q01DX009 (ip), vehicle: saline 98 % of control

Cc1ccc(SSc2ccc(C)cc2[N+](=O)[O-])c([N+](=O)[O-])c1
inactive: [7] 92 % of control | [8] 97 % of control | [9] 91 % of control | [10] 90 % of control | [11] 90 % of control | [12] 94 % of control

CC(=O)C(C)(NCc1ccccc1)c1ccccc1 (stereo unspecified)
inactive: dose: 50.0 mg/kg/injection, schedule: Q04DX003 (ip), vehicle: saline 97 % of control | dose: 100.0 mg/kg/injection, schedule: Q04DX003 (ip), vehicle: other 95 % of control | [13] 97 % of control | dose: 200.0 mg/kg/injection, schedule: Q04DX003 (ip), vehicle: other 93 % of control | [14] 102 % of control | dose: 400.0 mg/kg/injection, schedule: Q04DX003 (ip), vehicle: other 87 % of control

C=C(Br)CNC(N)=S
inactive: dose: 50.0 mg/kg/injection, schedule: Q01DX009 (ip), vehicle: Klucel (hydroxypropylcellulose) (HPC) 96 % of control | [7] 100 % of control | [8] 94 % of control | [9] 102 % of control | [10] 95 % of control

CC(C)C(=O)CCC1CCCCC1
inactive: [2] 100 % of control | [3] 100 % of control | [4] 97 % of control

Cc1nc2c(NC(=O)C(F)(F)F)nn(C)c2nc1C
inactive: [15] 94 % of control | [16] 100 % of control | [17] 92 % of control | [18] 100 % of control | [19] 106 % of control

c1ccc2c3c(ccc2c1)Sc1ccc2ccccc2c1N3
inactive: [20] 102 % of control | [13] 97 % of control | [21] 98 % of control | [14] 111 % of control | [22] 93 % of control | dose: 400.0 mg/kg/injection, schedule: Q04DX003 (ip), vehicle: saline 95 % of control

CC1(C)C2CC3C(=CCC4C(=O)OC(=O)C43)C1C2 (stereo unspecified)
inactive: [7] 104 % of control | [8] 101 % of control | [9] 100 % of control | [10] 100 % of control | [12] 100 % of control

Nc1ncnc2nc(N=Nc3ccc(S(=O)(=O)N(CCCl)CCCl)cc3)[nH]c12
inactive: dose: 50.0 mg/kg/injection, schedule: Q04DX003 (ip), vehicle: Klucel (hydroxypropylcellulose) (HPC) 93 % of control | [8] 88 % of control and 91 % of control | [10] 96 % of control

Oc1ccc(O)c(Cl)c1
inactive: [5] 107 % of control | dose: 50.0 mg/kg/injection, schedule: Q04DX002 (ip), vehicle: saline 106 % of control | dose: 100.0 mg/kg/injection, schedule: Q01DX001 (ip), vehicle: Klucel (hydroxypropylcellulose) (HPC) 94 % of control | [6] 107 % of control | dose: 100.0 mg/kg/injection, schedule: Q04DX002 (ip), vehicle: saline 92 % of control | dose: 200.0 mg/kg/injection, schedule: Q01DX001 (ip), vehicle: Klucel (hydroxypropylcellulose) (HPC) 94 % of control

CN(C)c1ccc(/C=N/NC(=O)c2ccc(N)cc2)cc1
inactive: [7] 89 % of control | [9] 86 % of control | [11] 89 % of control

O=C1C=CC(=O)c2[nH]c(-c3ccccc3)cc21
inactive: dose: 12.5 mg/kg/injection, schedule: Q04DX002 (ip), vehicle: Klucel (hydroxypropylcellulose) (HPC) 93 % of control | dose: 25.0 mg/kg/injection, schedule: Q04DX002 (ip), vehicle: Klucel (hydroxypropylcellulose) (HPC) 105 % of control

Fc1ccc2c(c1)CC(CBr)O2 (stereo unspecified)
inactive: [5] 100 % of control | [6] 105 % of control | [23] 103 % of control | [24] 103 % of control

O=CNc1ccccc1Sc1ccc(C(=O)O)cc1[N+](=O)[O-]
inactive: [8] 100 % of control | [10] 107 % of control | [12] 104 % of control

O=C(/C=C/c1ccc2c(c1)OCO2)c1ccc(Cl)cc1
inactive: [25] 97 % of control | [15] 95 % of control | [17] 96 % of control

Clc1ccc(P(c2ccc(Cl)cc2)c2ccc(Cl)cc2)cc1
inactive: [15] 87 % of control | [16] 98 % of control | [18] 95 % of control | [19] 97 % of control

Nc1nc(N)c2c(n1)CN(Cc1ccccc1)C2
inactive: dose: 25.0 mg/kg/injection, schedule: Q01DX001 (ip), vehicle: carboxymethylcellulose (CMC) 103 % of control | dose: 50.0 mg/kg/injection, schedule: Q01DX001 (ip), vehicle: carboxymethylcellulose (CMC) 103 % of control

O=C(Nc1ncccn1)C(F)(F)F
inactive: [5] 95 % of control | [6] 92 % of control | [23] 95 % of control | [24] 90 % of control

C1=CCOCOC1
inactive: dose: 12.5 mg/kg/injection, schedule: Q01DX009 (ip), vehicle: saline with Tween-80 97 % of control | dose: 25.0 mg/kg/injection, schedule: Q01DX009 (ip), vehicle: saline with Tween-80 94 % of control | [25] 97 % of control | [15] 113 % of control

CC(CCC(CCCCC(CCC(C)CC(C)(C)C)CCC(C)CC(C)(C)C)CCC(C)CC(C)(C)C)CC(C)(C)C (stereo unspecified)
inactive: dose: 75.0 mg/kg/injection, schedule: Q01DX001 (ip), vehicle: saline with Tween-80 103 % of control | dose: 150.0 mg/kg/injection, schedule: Q01DX001 (ip), vehicle: saline with Tween-80 98 % of control | dose: 300.0 mg/kg/injection, schedule: Q01DX001 (ip), vehicle: saline with Tween-80 98 % of control

O=C(CCN1CCOCC1)c1ccccc1
inactive: dose: 75.0 mg/kg/injection, schedule: Q01DX001 (ip), vehicle: saline 94 % of control | dose: 150.0 mg/kg/injection, schedule: Q01DX001 (ip), vehicle: saline 89 % of control | dose: 300.0 mg/kg/injection, schedule: Q01DX001 (ip), vehicle: saline 92 % of control

CCC(=O)OCc1ccc(Cl)cc1
inactive: [7] 97 % of control | [8] 101 % of control | [9] 95 % of control | [10] 96 % of control | [11] 94 % of control | [12] 95 % of control

CCCCOP(=O)(/C=C/c1cccs1)OCCCC
inactive: [16] 100 % of control | [18] 94 % of control

O=C(Nc1ccc(F)cc1)Oc1ccc([N+](=O)[O-])cc1
inactive: dose: 25.0 mg/kg/injection, schedule: Q01DX009 (ip), vehicle: saline 106 % of control | dose: 50.0 mg/kg/injection, schedule: Q01DX009 (ip), vehicle: saline 100 % of control | [20] 97 % of control and 106 % of control | [21] 95 % of control | [22] 97 % of control
